Values joined by “and” are separate entries in the source; they are usually repeats but may differ in a detail not shown here. Identical values can stand only once.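 1) Cells in 96-well plates. 2) Compound, 48 h, 5 concentrations. 3) Linear interpolation between surrounding doses. 4) Unreached endpoint = highest concentration. At the GI50, growth is halved. TGI denotes the concentration required for complete inhibition of growth.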
Assays:
Assay in all cases: NCI tumour cell line growth inhibition, 48 h; in the data active means GI50 below about 0.43 µM; inactive means the rest
[1] = tested on: SF-539 CNS
[2] = tested on: UO-31 renal
[3] = tested on: DU-145 prostate
[4] = tested on: K-562 leukemia
[5] = tested on: MDA-N
[6] = tested on: OVCAR-8 ovarian
[7] = tested on: LOX IMVI melanoma
[8] = tested on: CCRF-CEM leukemia
[9] = tested on: U251 CNS
[10] = tested on: HOP-92 NSCLC

COC(=O)NN(C(=O)OC)c1c(-c2ccccc2)nc(SC)n1N
> 100 µM: TGI [1] | TGI [2] | TGI [3] | TGI [4] | TGI [5] | TGI [6] | TGI [7] | TGI [8] | TGI [9]

COc1cc(C2c3cc4c(cc3OC(NN=C(C)C)C2C)OCO4)cc(OC)c1O (stereo not drawn)
56.1 µM: TGI [1]
11.6 µM: TGI [5]
> 100 µM: TGI [2] | TGI [3] | TGI [6] | TGI [9] | TGI [10]

CCOC(=O)C1=C(C(C)=O)CSC(c2ccccc2)=N1
> 100 µM: TGI [1] | TGI [2] | TGI [4] | TGI [6] | TGI [7] | TGI [8] | TGI [9] | TGI [10]

CC(=O)N/N=C1/NN(C(C)=O)C2(S1)C(=O)Nc1ccc(Br)cc12 (stereo not drawn)
> 100 µM: TGI [1] | TGI [2] | TGI [3] | TGI [4] | TGI [6] | TGI [7] | TGI [8] | TGI [9] | TGI [10]

N#Cc1nc(-c2cc([N+](=O)[O-])cc([N+](=O)[O-])c2)oc1N
> 10 µM: TGI [1] | TGI [2] | TGI [3] | TGI [4] | TGI [5] | TGI [6] | TGI [7] | TGI [8] | TGI [10]

COP(=O)(O)/C=C/C(NC(=O)C(Cl)(Cl)Cl)c1ccccc1 (stereo not drawn)
> 100 µM: TGI [2] | TGI [3] | TGI [4] | TGI [5] | TGI [6] | TGI [7] | TGI [9] | TGI [10]

C/C(=N/NC(N)=S)c1ccc2ccccc2c1
44.4 µM: TGI [1]
> 100 µM: TGI [6] | TGI [7] | TGI [8] | TGI [10]
80.4 µM: TGI [9]

O=C(O)C1CC(c2ccc(F)cc2)=Nc2ccc(F)cc2S1 (stereo not drawn)
> 100 µM: TGI [1] | TGI [2] | TGI [3] | TGI [4] | TGI [5] | TGI [6] | TGI [8] | TGI [10]

COc1cc(/C=C/C(=O)O)ccc1C(=O)O/C=C/c1ccccc1
> 100 µM: TGI [1] | TGI [2] | TGI [4] | TGI [6] | TGI [7] | TGI [8] | TGI [9] | TGI [10]

CCN(CC)CCNc1ccc2nnn3c4ccc(OC)cc4c(=O)c1c23
22.2 µM: TGI [2]
19.9 µM: TGI [6]
32.7 µM: TGI [8]
17.2 µM: TGI [1]
22.3 µM: TGI [9]
11.1 µM: TGI [7]
19.5 µM: TGI [10]
20.1 µM: TGI [4]

CSC1CC2C(CC1(C)O)C2(C)C (stereo not drawn)
> 100 µM: TGI [1] | TGI [2] | TGI [4] | TGI [6] | TGI [7] | TGI [8] | TGI [9] | TGI [10]
inactive: GI50 [4] 49.7 µM and > 100 µM | GI50 [8] 49.3 µM and > 100 µM | GI50 [10] 25.5 µM and > 100 µM

COC(=O)c1c(C)cccc1/C=C1/Cc2c(C)cccc2C1=O
> 100 µM: TGI [1] | TGI [2] | TGI [3] | TGI [5] | TGI [6] | TGI [7] | TGI [9] | TGI [10]

COc1ccc(/C(=N/O)c2ccccc2-c2nc3ccccc3c(=O)n2-c2ccc(S(=O)(=O)Nc3ncccn3)cc2)cc1C
22.9 µM: TGI [9]
25.5 µM: TGI [8]
30.4 µM: TGI [10]
21.6 µM: TGI [4]
> 31.6 µM: TGI [2] | TGI [3] | TGI [5] | TGI [6]
27.2 µM: TGI [1]

COc1ccc(N2C(=O)c3c4c(c5c([nH]c6ncccc65)c3C2=O)CCC(C(C)(C)C)C4)cc1 (stereo not drawn)
98 µM: TGI [9]
> 100 µM: TGI [1] | TGI [2] | TGI [3] | TGI [5] | TGI [6] | TGI [8]

CCC(C(=O)O)c1ccc(OCc2ccccc2)cc1 (stereo not drawn)
> 100 µM: TGI [1] | TGI [2] | TGI [4] | TGI [7] | TGI [8] | TGI [9] | TGI [10]

Oc1ccc(-c2nnc3sc(-c4ccc(F)cc4)nn23)cc1
41.9 µM: TGI [9]
inactive: GI50 [1] 36.5 µM | GI50 [2] > 100 µM | GI50 [3] 51.2 µM | GI50 [4] > 100 µM | GI50 [6] 48.3 µM | GI50 [7] 34.5 µM | GI50 [8] 55.7 µM | GI50 [9] 17.3 µM | GI50 [10] 46.1 µM
> 100 µM: TGI [1] | TGI [2] | TGI [3] | TGI [4] | TGI [6] | TGI [7] | TGI [8] | TGI [10]

NC(=O)C(=O)N/N=C1/c2ccccc2CC1C1(O)C(=O)Nc2c(Cl)cc(Cl)cc21 (stereo not drawn)
> 100 µM: TGI [1] | TGI [2] | TGI [4] | TGI [6] | TGI [7] | TGI [8] | TGI [9] | TGI [10]

CCCCCCCCCC[C@H](O)[C@H]1CC[C@H]([C@H]2CC[C@H]([C@H](O)CC[C@H](O)CCCCCCC[C@@H](O)CC3=C[C@H](C)OC3=O)O2)O1
> 100 µM: TGI [1] | TGI [2] | TGI [5] | TGI [6] | TGI [7] | TGI [8] | TGI [9] | TGI [10]
67.8 µM: TGI [4]
inactive: GI50 [2] 23.6 µM | GI50 [5] 6.36 µM | GI50 [7] 1.26 µM | GI50 [8] 3.12 µM | GI50 [9] > 100 µM | GI50 [10] > 100 µM

Cc1nn(C(=O)Cc2ccccc2)c2c1C(c1ccccc1O)SC(N)=N2 (stereo not drawn)
> 100 µM: TGI [1] | TGI [2] | TGI [3] | TGI [4] | TGI [6] | TGI [7] | TGI [8]

COc1cc(/C=C2\C(=O)N(C(=O)Cc3ccccc3)N=C2C)ccc1O
> 100 µM: TGI [1] | TGI [2] | TGI [4] | TGI [6] | TGI [7] | TGI [8]

COc1cc2c(cc1OC)C(N(C)C)C(c1ccccc1)=C2Cl (stereo not drawn)
> 100 µM: TGI [4] | TGI [8]
32 µM: TGI [2]
37.7 µM: TGI [1]
36.7 µM: TGI [10]
31.9 µM: TGI [7]
47.8 µM: TGI [6]
30.3 µM: TGI [9]

CN(C)C(CN)CC1=C(CC(CN)N(C)C)CCC1 (stereo not drawn)
> 100 µM: TGI [1] | TGI [2] | TGI [4] | TGI [6] | TGI [7] | TGI [8] | TGI [9] | TGI [10]

COc1ccc(CC(CO)NC(=O)OCc2ccccc2)cc1Oc1ccc(CC(CO)NC(=O)OCc2ccccc2)cc1 (stereo not drawn)
31.4 µM: TGI [2]
46.1 µM: TGI [10]
54.1 µM: TGI [5]
66.6 µM: TGI [8]
46 µM: TGI [3]
63.9 µM: TGI [9]

From PubChem BioAssay (NCI)
